Reference: patent US12098180B2, “Compositions and uses of vasoactive intestinal peptide (VIP) antagonists” (EMORY UNIVERSITY, priority 2018, dated 2024)

How the values were obtained:
acute leukemia = details: Oncoimmunology, 2017, 6(5):e1304336; cited from earlier work
[1] = tested on: T cells from Chronic lymphocytic leukemia (CLL) donors; test: Ex vivo expansion of T cells with anti-CD3/28 beads and IL-2; type: cell-based; details: anti-CD3/28 beads and 30 U/mL IL-2
[2] = tested on: T cells from luciferase+C57/BL6 mice; test: T cell proliferation in short-term culture with plate bound anti-CD3 antibody and IL-2; type: cell-based
Experimental: T cells from luciferase+C57/BL6 mice were harvested and cultured in 96-well plate with 1 μg/ml anti-CD3 antibody and 30 U/ml IL-2 in the presence of original VIPhyb, Ant-1, Ant-2, Ant-3, Ant-4, Ant-5, Ant-6, Ant-7 or Ant-8 at 1 μM.
T cells from luciferase+C57/BL6 mice were harvested and cultured in 96-well plate with either 0.5 μg/ml or 1 μg/ml anti-CD3 antibody and 30 U/ml IL-2 in the presence of original VIPhyb or Ant-8 at 0.5 μM, 1 μM or 3 μM.
The peptides (SEQ ID NO: 3-10 in FIG. 1) were added to short-term cultures of luciferase positive T-cells cultured in the presence of plate bound anti CD3 antibody in 96 well plates. The concentration of anti-CD3 antibody was either 0.5 mcg per ml or 1 mcg per ml. The T-cells from luciferase transgenic mice were added in the presence of low-dose IL-2 and 0.5 micromolar, 1 micromolar, or 3 micromolar concentrations of the original VIPhyb peptide or the alternative ANT-1 to ANT-8 peptide sequences were added.

Sequence | autologous anti-leukemia T cell response (acute leukemia) | yields of T cells during ex vivo expansion [1] | T-cell proliferation using lower concentrations of anti-CD3 ([2]; lower anti-CD3 concentration (0.5 mcg per ml), compared to control cultures with plate bound anti-CD3 and no added peptides) | antagonist activity compared to the native VIPhyb ([2]; overall conclusion from the T-cell proliferation cultures) | T-cell proliferation at 24 hours ([2]; peptide at 0.5, 1 and 3 micromolar, compared to the original VIPhyb peptide at the same concentrations)
KPRRPYTDNYTRLRKQMAVKKYLNSILN [VIPhyb, chimeric peptide VIP antagonist; six N-terminal amino acids of native VIP replaced] | enhances the autologous anti-leukemia T cell response | – | – | – | –
KPRRPYTDNYTRLRKQMAVKKYLNLILN [ANT-8, VIPhyb variant with S to L substitution at position 25] | – | enhance yields of T cells | more modest and not significantly different from control cultures | improved antagonist activity | enhanced T-cell proliferation
